“Also recorded” adds a separate entry of the source. Like-named read-outs stand apart in the source and are kept apart here.
What was measured:
[1] = system: HIV envelope gp120/41-induced syncytia formation in CD4+T cell lines (HIVenv 2-8 co-culture); test: Inhibition of HIVenv 2-8-induced syncytia formation / cell death (HIV-1 co-culture assay); type: cell-based; conditions: for Estimated IC50 (Syncitia Quantification), inhibition of HIV-induced cytopathicity: Table 1
Experimental: Sourcing of Ah Receptor Ligands: The Ah receptor ligands 2,3,7,8-Tetrachlorodibenzo-p-dioxin, 3,3',4,4',5-Pentachlorobiphenyl, 3,3',4,'4-Tetrachlorobiphenyl, and 2-Monochlorodibenzo-p-dioxin compounds were purchased from Accustandard (Cambridge, Mass.). α-naphthoflavone was purchased from Sigma (St. Louis, Mo.). Stock solutions of each compound were prepared by dissolution in DMSO at a 1000X concentration, i.e. the highest concentration tested was diluted by 1000-fold.
Bioassay Procedure: The cell lines utilized in the assay protocol include the following: HIVenv 2-2 (non-cytopathic), HIVenv 2-8 (cytopathic), Jurkat CD4+T cell line (clone E6-1), and SupT1. Cell lines were cultured in RPMI medium (Gibco, Grand Island, N.Y.) supplemented with L-glutamine (Sigma, St. Louis, Mo.) and 10% FBS-HI (Intergen). The Jurkat CD4+T cell line was obtained from American Type Culture Collection (Bethesda, Md.). All other cell lines were obtained from the National Institutes of Health. The HIVenv 2-2 or HIVenv 2-8 cells were plated with both CD4+T cell lines (1×10^3 cells per cell line in 16 μL of media.) in a 96-well tissue culture plate containing 50 μL of media with compound to be tested yielding a final volume of approximately 100 μL. The plates were then gently shaken to ensure adequate mixing of the assay components. Cells were then co-cultured at 5% CO2, 37C., and 95% humidity for 24 to 48 hours. The time points were chosen for the convenience, cytopathic changes become evident in the cell cultures used within a 2 to 4 hour period, becoming more and more prominent with time.
Data Reduction for this ELISA: HIVenv 2-2 co-culture ELISA values are used as the background for HIVenv 2-8 co-culture values. Dose responses are then plotted with dose along the x-axis and the background corrected optical density values on the y-axis.
Positive and Negative Controls: The use of the HIVenv 2-2 cell line serves as a negative control for induction of cytopathicity.
(§1) Interpretation of the Test: A positive response was defined as a dose-related decrease in syncytia formation in excess of 50% compared to HIVenv 2-8 co-cultures alone. Calculation of median effective doses was estimated by visual observation and by quantification of syncitia in 10X power microscope fields.
The Materials and Methods used in the testing of the various dibenzofuran compounds were the same as those used in Example 1 above. This includes the use of the same controls, cell lines, and assay procedures.
as §1, with “fields. Another procedure which provides data similar to the Bioassay procedure just described allows for quantification of changes in the co-culture cells through an ELISA method, not as reliant on visual observation. […]” for “fields.”

Ah receptor [2] = biological target: T1, Ah receptor (Cavia porcellus, UniProt Q6J287); test: Inhibition of Ah receptor transformation, antagonist test (Ah-immunoassay, 0.5 nM TCDD); conditions: for Test as antagonist, Milli O.D at 405: 0.5 nM TCDD; for binding or interaction with the Ah receptor (words): with and without 0.5 nM TCDD
T1 sequence (Q6J287 1-846): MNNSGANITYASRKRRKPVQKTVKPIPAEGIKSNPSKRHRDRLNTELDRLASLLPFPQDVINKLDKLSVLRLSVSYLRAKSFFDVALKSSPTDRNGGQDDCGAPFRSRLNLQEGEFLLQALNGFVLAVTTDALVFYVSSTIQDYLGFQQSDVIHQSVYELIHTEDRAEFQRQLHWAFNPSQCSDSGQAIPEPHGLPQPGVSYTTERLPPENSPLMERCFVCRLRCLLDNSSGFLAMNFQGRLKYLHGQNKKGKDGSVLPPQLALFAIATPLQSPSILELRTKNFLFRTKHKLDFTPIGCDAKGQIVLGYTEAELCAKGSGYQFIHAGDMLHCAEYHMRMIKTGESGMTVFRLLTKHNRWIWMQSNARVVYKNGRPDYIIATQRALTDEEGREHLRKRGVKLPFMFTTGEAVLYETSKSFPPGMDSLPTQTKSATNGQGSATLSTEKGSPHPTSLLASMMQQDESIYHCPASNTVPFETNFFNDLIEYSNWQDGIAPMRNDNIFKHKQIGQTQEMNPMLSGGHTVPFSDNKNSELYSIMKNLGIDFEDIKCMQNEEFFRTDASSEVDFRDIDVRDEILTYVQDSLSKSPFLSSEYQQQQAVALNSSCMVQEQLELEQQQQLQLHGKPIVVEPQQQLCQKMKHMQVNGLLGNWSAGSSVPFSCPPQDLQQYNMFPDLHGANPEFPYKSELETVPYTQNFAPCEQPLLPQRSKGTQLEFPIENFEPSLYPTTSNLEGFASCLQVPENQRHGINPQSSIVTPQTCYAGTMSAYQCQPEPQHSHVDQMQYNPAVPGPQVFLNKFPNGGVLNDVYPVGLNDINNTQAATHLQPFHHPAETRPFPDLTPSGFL
Experimental: Cytosol was prepared as described in methods and treated with TCDD, DMSO or TCM extract to make 1) 0.5 nM TCDD, 2) 0.1% DMSO, or 3) 500 μg/mL TCM extract, respectively. The treated cytosol was serially diluted in a neutravidin-coated ELISA plate (Pierce, Rockford, Ill.). […] To treat for Ah receptor agonist activity, extracts were diluted in 0.5 nM TCDD treated cytosol to 250, 125, and 62.5 μg/mL of TCM extracts.
Ten mL aliquots of cytosol were thawed and pooled, generally 20 mL per ELISA plate. For each 20 mL of cytosol, 10 μL of thawed DRE stock and 1 mL HEDG in 4M NaCl were added.
0.5 nM TCDD Diluent for extracts (detection of antagonists): The cytosol is treated with 1 μl of 1 μM TCDD per 2 mL cytosol (0.5 nm).
500 μg/mL extracts (detection of antagonists): 1 μL of test extract (500 mg/mL in DMSO) in 1 mL 0.5 nM TCDD-treated cytosol (500 μg/mL final concentration of extract in cytosol).
Serial dilution's of the extracts and/or TCDD treated cytosol into DMSO-treated cytosol are done as required by the experiment and are described in the examples.
The ELISA plate containing the treated cytosol is incubated with gentle rocking for 2 hours at 30° C. to allow the transformation of Ah receptor, binding of Ah receptor with ARNT, and binding of the Ah receptor/ARNT complex to the biotinylated DRE, and binding of the biotinylated DRE to the neutravidin bound to the ELISA plate.
After 2 hours the plate is washed 3 times with 400 μL TBS plus 0.02% Tween 20 per well per wash and 200 μL of the working dilution of anti-ARNT added to all wells. The plate is again incubated with gentle rocking at 30° C. for 1 hour. After 1 hour the plate is washed as before and a working dilution (1:4000) of anti-rabbit/alkaline phosphatase conjugate is added to all wells. The plate is incubated for a further 1 hour at 30° C. with gentle rocking and then washed as before. PNPP stock is added to each well (200 μL) and the plate is incubated for 1 hour at 30° C., at which time it is read at 405 nm in an ELISA plate reader and the milli O.D.'s of the wells are recorded.
TCM extracts were tested for their ability to inhibit the transformation of the Ah receptor.

Ah receptor [3] = biological target: T1, Ah receptor; test: Ah receptor transformation, agonist test (Ah-immunoassay, absence of TCDD); type: biochemical, Guinea pig; conditions: absence of TCDD
Experimental: Cytosol was prepared as described above.
Diluent for TCDD dose response, diluent for extracts (detection of agonists), and negative control: The cytosol is treated with 1 μL DMSO per 1 mL cytosol (-).
1 nM TCDD treated, positive control. […] DMSO diluent for detection of agonists: the cytosol is treated with μL DMSO per 1 mL cytosol. (1 nm final concentration of TCDD).

[4] = system: HIV; viruses; tumors; liver; conditions: cited from earlier work

Clc1cc2c(cc1Cl)Oc1c(Cl)c(Cl)c(Cl)c(Cl)c1O2 [1,2,3,4,7,8-HCDD]
Estimated IC50 (Syncitia Quantification), inhibition of HIV-induced cytopathicity [1]: No Inhibition Observed

Cc1cc(Cl)cc2c1oc1cc(Cl)cc(Br)c12 [1-bromo,6-methyl,3,8-dichlorodibenzofuran]
inhibition of syncytia formation / cytopathicity [1]: most effective compound and strongest Ah receptor antagonist | Estimated IC50 (Syncitia Quantification), inhibition of HIV-induced cytopathicity [1]: 100 nM

Clc1cc2oc3cc(Cl)c(Cl)cc3c2cc1Cl [2,3,7,8-TCDF]
Estimated IC50 (Syncitia Quantification), inhibition of HIV-induced cytopathicity [1]: 80 nM

Clc1ccc(-c2cc(Cl)c(Cl)c(Cl)c2)cc1Cl [3,3',4,4',5-PCB, 3,3',4,4',5-pentachlorobiphenyl]
inhibition of syncytia formation / cytopathicity [1]: correspondingly weaker activity | Estimated IC50 (Syncitia Quantification), inhibition of HIV-induced cytopathicity [1]: 100 nM

Clc1ccc(-c2ccc(Cl)c(Cl)c2)cc1Cl [3,3',4,4'-TCB, 3,3',4,4'-tetrachlorobiphenyl]
inhibition of syncytia formation / cytopathicity [1]: correspondingly weaker activity | Estimated IC50 (Syncitia Quantification), inhibition of HIV-induced cytopathicity [1]: 35 nM

CCCCc1cc(Cl)cc2c1oc1cc(Cl)cc(Cl)c12 [6-butyl,1,3,8-trichlorodibenzofuran]
Estimated IC50 (Syncitia Quantification), inhibition of HIV-induced cytopathicity [1]: 1500 nM

Clc1cc(Cl)c2c(c1)oc1c(C3CCCCC3)cc(Cl)cc12 [6-cyclohexyl,1,3,8-trichlorodibenzofuran]
Estimated IC50 (Syncitia Quantification), inhibition of HIV-induced cytopathicity [1]: 500 nM

CCc1cc(Cl)cc2c1oc1cc(Cl)cc(Cl)c12 [6-ethyl,1,3,8-trichlorodibenzofuran]
Estimated IC50 (Syncitia Quantification), inhibition of HIV-induced cytopathicity [1]: 1000 nM

CC(C)c1cc(Cl)cc2c1oc1cc(Cl)cc(Cl)c12 [6-isopropyl,1,3,8-trichlorodibenzofuran]
inhibition of syncytia formation / cytopathicity [1]: slightly less antagonistic activity | Estimated IC50 (Syncitia Quantification), inhibition of HIV-induced cytopathicity [1]: 100 nM

Cc1cc(Cl)cc2c1oc1cc(Cl)cc(Cl)c12 [6-methyl,1,3,8-trichlorodibenzofuran]
Estimated IC50 (Syncitia Quantification), inhibition of HIV-induced cytopathicity [1]: 200 nM

O=[N+]([O-])c1cc(Cl)cc2c1oc1cc(Cl)cc(Cl)c12 [6-nitro 1,3,8-trichlorodibenzofuran]
inhibition of syncytia formation / cytopathicity [1]: slightly less antagonistic activity | Estimated IC50 (Syncitia Quantification), inhibition of HIV-induced cytopathicity [1]: 500 nM

CCCc1cc(Cl)cc2c1oc1cc(Cl)cc(Cl)c12 [6-propyl,1,3,8-trichlorodibenzofuran]
Estimated IC50 (Syncitia Quantification), inhibition of HIV-induced cytopathicity [1]: 500 nM

CC(C)(C)c1cc(Cl)cc2c1oc1cc(Cl)cc(Cl)c12 [6-t-butyl,1,3,8-trichlorodibenzofuran]
Estimated IC50 (Syncitia Quantification), inhibition of HIV-induced cytopathicity [1]: 1500 nM

C=C1CC[C@@H]2[C@](C)(CO)[C@H](O)CC[C@@]2(C)[C@@H]1C/C=C1/C(=O)OC[C@H]1O [Andrographolide, andrographolide]
Test as antagonist, Milli O.D at 405 (Ah receptor [2]; Table 11, 0.313 μg/mL): 1457 Milli O.D | Test as antagonist, Milli O.D at 405 (Ah receptor [2]; Table 11, 0.625 μg/mL): 1402 Milli O.D | Test as antagonist, Milli O.D at 405 (Ah receptor [2]; Table 11, 1.25 μg/mL): 1437 Milli O.D | Test as antagonist, Milli O.D at 405 (Ah receptor [2]; Table 11, 2.5 μg/mL): 1416 Milli O.D | Test as antagonist, Milli O.D at 405 (Ah receptor [2]; Table 11, 5 μg/mL): 1421 Milli O.D | Test as antagonist, Milli O.D at 405 (Ah receptor [2]; Table 11, 10 μg/mL): 1164 Milli O.D | binding or interaction with the Ah receptor (words) (Ah receptor [2]): does not interact or inhibit the Ah receptor | binding or interaction with the Ah receptor (words) (Ah receptor [2]; listed as andrographolide): does not bind the Ah receptor; also recorded: non-Ah receptor binding | Test as agonist, Milli O.D at 405 (Ah receptor [3]; Table 11, 0.313 μg/mL): 49.5 Milli O.D | Test as agonist, Milli O.D at 405 (Ah receptor [3]; Table 11, 0.625 μg/mL): 43 Milli O.D | Test as agonist, Milli O.D at 405 (Ah receptor [3]; Table 11, 1.25 μg/mL): 59.5 Milli O.D | Test as agonist, Milli O.D at 405 (Ah receptor [3]; Table 11, 2.5 μg/mL): 54.5 Milli O.D | Test as agonist, Milli O.D at 405 (Ah receptor [3]; Table 11, 5 μg/mL): 55 Milli O.D | Test as agonist, Milli O.D at 405 (Ah receptor [3]; Table 11, 10 μg/mL): 47 Milli O.D | pharmacological activity (words) [4]: anti-tumor activity | pharmacological activity (words) ([4]; listed as andrographolide): anti-HIV effects; also recorded: anti-viral, anti-neoplastic and hepatoprotective properties

Clc1ccc2c(c1)Oc1ccccc1O2 [Extract 2-MCDD, 2-Monochlorodibenzo-p-dioxin]
inhibition of syncytia formation / cytopathicity [1]: incapable of blocking the cytopathic effect | Estimated IC50 (Syncitia Quantification), inhibition of HIV-induced cytopathicity [1]: No Inhibition Observed

CC1(C)CC[C@]2(C(=O)O)CC[C@]3(C)C(=CC[C@@H]4[C@@]5(C)CC[C@H](O)C(C)(C)[C@@H]5CC[C@]43C)[C@@H]2C1 [Oleanolic Acid]
Test as antagonist, Milli O.D at 405 (Ah receptor [2]; Table 11, 0.313 μg/mL): 1493 Milli O.D | Test as antagonist, Milli O.D at 405 (Ah receptor [2]; Table 11, 0.625 μg/mL): 1444 Milli O.D | Test as antagonist, Milli O.D at 405 (Ah receptor [2]; Table 11, 1.25 μg/mL): 1438 Milli O.D | Test as antagonist, Milli O.D at 405 (Ah receptor [2]; Table 11, 2.5 μg/mL): 1462 Milli O.D | Test as antagonist, Milli O.D at 405 (Ah receptor [2]; Table 11, 5 μg/mL): 1423 Milli O.D | Test as antagonist, Milli O.D at 405 (Ah receptor [2]; Table 11, 10 μg/mL): 1143 Milli O.D | binding or interaction with the Ah receptor (words) (Ah receptor [2]): non-Ah receptor binding | Test as agonist, Milli O.D at 405 (Ah receptor [3]; Table 11, 0.313 μg/mL): 48 Milli O.D | Test as agonist, Milli O.D at 405 (Ah receptor [3]; Table 11, 0.625 μg/mL): 19.5 Milli O.D | Test as agonist, Milli O.D at 405 (Ah receptor [3]; Table 11, 1.25 μg/mL): 49 Milli O.D | Test as agonist, Milli O.D at 405 (Ah receptor [3]; Table 11, 2.5 μg/mL): 49.5 Milli O.D | Test as agonist, Milli O.D at 405 (Ah receptor [3]; Table 11, 5 μg/mL): 49.5 Milli O.D | Test as agonist, Milli O.D at 405 (Ah receptor [3]; Table 11, 10 μg/mL): 50 Milli O.D
